Tested on: plants
Experiment: Test D pre-emergence, other plants of Tables D1 and D3
Assay type: in vivo
Conditions: for damage to plant, ALOMY / damage to plant, AVEFA / damage to plant, BEAVA / damage to plant, BROTE / damage to plant, BRSNN / damage to plant, HORVW / damage to plant, SINAR: pre-emergence, 100=total damage, 0=no damage; for ABUTH damage to plant (100=total damage; 0=no damage) / AMARE damage to plant (100=total damage; 0=no damage) / DIGSA damage to plant (100=total damage; 0=no damage) / ECHCG damage to plant (100=total damage; 0=no damage) / ORYSA damage to plant (100=total damage; 0=no damage) / PANMI damage to plant (100=total damage; 0=no damage) / SETFA damage to plant (100=total damage; 0=no damage): preemergent
How it was run: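 Damage was rated visually from 0 (none) to 100 (total), at 20 DAA for pre-emergence and 15 d for post-emergence. Plants grew from safener-treated seed in a glasshouse at 24/18° C. or 20/16° C. day/night, 65% humidity, watered twice daily.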

CN1CC(c2cnn(C)c2C(F)(F)F)C(C(=O)Nc2cccc(F)c2F)C1=O (racemic) [Compound 25]
0: damage to plant, ALOMY (rate 15, 20 DAA) | damage to plant, AVEFA (rate 15, 20 DAA) | damage to plant, BEAVA (rate 15, 20 DAA) | damage to plant, BROTE (rate 15, 20 DAA) | damage to plant, BRSNN (rate 15, 20 DAA) | damage to plant, HORVW (rate 15, 20 DAA) | damage to plant, SINAR (rate 15, 20 DAA) | damage to plant, ALOMY (rate 30, 20 DAA) | damage to plant, AVEFA (rate 30, 20 DAA) | damage to plant, BEAVA (rate 30, 20 DAA) | damage to plant, BROTE (rate 30, 20 DAA) | damage to plant, BRSNN (rate 30, 20 DAA) | damage to plant, HORVW (rate 30, 20 DAA) | damage to plant, SINAR (rate 30, 20 DAA) | damage to plant, ALOMY (rate 60, 20 DAA) | damage to plant, AVEFA (rate 60, 20 DAA) | damage to plant, BEAVA (rate 60, 20 DAA) | damage to plant, BROTE (rate 60, 20 DAA) | damage to plant, BRSNN (rate 60, 20 DAA) | damage to plant, HORVW (rate 60, 20 DAA) | damage to plant, SINAR (rate 60, 20 DAA) | damage to plant, ALOMY (rate 130, 20 DAA) | damage to plant, AVEFA (rate 130, 20 DAA) | damage to plant, BEAVA (rate 130, 20 DAA) | damage to plant, BROTE (rate 130, 20 DAA) | damage to plant, BRSNN (rate 130, 20 DAA) | damage to plant, HORVW (rate 130, 20 DAA) | damage to plant, SINAR (rate 130, 20 DAA) | damage to plant, ALOMY (rate 250, 20 DAA) | damage to plant, AVEFA (rate 250, 20 DAA) | damage to plant, BEAVA (rate 250, 20 DAA) | damage to plant, BROTE (rate 250, 20 DAA) | damage to plant, BRSNN (rate 250, 20 DAA) | damage to plant, HORVW (rate 250, 20 DAA) | damage to plant, SINAR (rate 250, 20 DAA) | damage to plant, ALOMY (rate 500, 20 DAA) | damage to plant, AVEFA (rate 500, 20 DAA) | damage to plant, BEAVA (rate 500, 20 DAA) | damage to plant, HORVW (rate 500, 20 DAA) | damage to plant, SINAR (rate 500, 20 DAA) | ABUTH damage to plant (100=total damage; 0=no damage) (Rates 15, 20 DAA) | AMARE damage to plant (100=total damage; 0=no damage) (Rates 15, 20 DAA) | DIGSA damage to plant (100=total damage; 0=no damage) (Rates 15, 20 DAA) | ECHCG damage to plant (100=total damage; 0=no damage) (Rates 15, 20 DAA) | ORYSA damage to plant (100=total damage; 0=no damage) (Rates 15, 20 DAA) | PANMI damage to plant (100=total damage; 0=no damage) (Rates 15, 20 DAA) | SETFA damage to plant (100=total damage; 0=no damage) (Rates 15, 20 DAA) | ABUTH damage to plant (100=total damage; 0=no damage) (Rates 30, 20 DAA) | AMARE damage to plant (100=total damage; 0=no damage) (Rates 30, 20 DAA) | ORYSA damage to plant (100=total damage; 0=no damage) (Rates 30, 20 DAA) | PANMI damage to plant (100=total damage; 0=no damage) (Rates 30, 20 DAA) | SETFA damage to plant (100=total damage; 0=no damage) (Rates 30, 20 DAA) | ABUTH damage to plant (100=total damage; 0=no damage) (Rates 60, 20 DAA) | AMARE damage to plant (100=total damage; 0=no damage) (Rates 60, 20 DAA) | ORYSA damage to plant (100=total damage; 0=no damage) (Rates 60, 20 DAA) | PANMI damage to plant (100=total damage; 0=no damage) (Rates 60, 20 DAA) | ABUTH damage to plant (100=total damage; 0=no damage) (Rates 130, 20 DAA) | AMARE damage to plant (100=total damage; 0=no damage) (Rates 130, 20 DAA) | ORYSA damage to plant (100=total damage; 0=no damage) (Rates 130, 20 DAA) | PANMI damage to plant (100=total damage; 0=no damage) (Rates 130, 20 DAA) | ABUTH damage to plant (100=total damage; 0=no damage) (Rates 250, 20 DAA) | AMARE damage to plant (100=total damage; 0=no damage) (Rates 250, 20 DAA) | ORYSA damage to plant (100=total damage; 0=no damage) (Rates 250, 20 DAA) | PANMI damage to plant (100=total damage; 0=no damage) (Rates 250, 20 DAA) | ABUTH damage to plant (100=total damage; 0=no damage) (Rates 500, 20 DAA) | AMARE damage to plant (100=total damage; 0=no damage) (Rates 500, 20 DAA) | ORYSA damage to plant (100=total damage; 0=no damage) (Rates 500, 20 DAA) | PANMI damage to plant (100=total damage; 0=no damage) (Rates 500, 20 DAA)
10: damage to plant, BROTE (rate 500, 20 DAA) | SETFA damage to plant (100=total damage; 0=no damage) (Rates 60, 20 DAA)
90: DIGSA damage to plant (100=total damage; 0=no damage) (Rates 130, 20 DAA) | ECHCG damage to plant (100=total damage; 0=no damage) (Rates 130, 20 DAA) | DIGSA damage to plant (100=total damage; 0=no damage) (Rates 250, 20 DAA) | ECHCG damage to plant (100=total damage; 0=no damage) (Rates 250, 20 DAA) | DIGSA damage to plant (100=total damage; 0=no damage) (Rates 500, 20 DAA) | ECHCG damage to plant (100=total damage; 0=no damage) (Rates 500, 20 DAA) | SETFA damage to plant (100=total damage; 0=no damage) (Rates 500, 20 DAA)
80: DIGSA damage to plant (100=total damage; 0=no damage) (Rates 60, 20 DAA)
60: DIGSA damage to plant (100=total damage; 0=no damage) (Rates 30, 20 DAA) | ECHCG damage to plant (100=total damage; 0=no damage) (Rates 60, 20 DAA) | SETFA damage to plant (100=total damage; 0=no damage) (Rates 130, 20 DAA) | SETFA damage to plant (100=total damage; 0=no damage) (Rates 250, 20 DAA)
20: damage to plant, BRSNN (rate 500, 20 DAA) | ECHCG damage to plant (100=total damage; 0=no damage) (Rates 30, 20 DAA)
